In series [1] the test system is bilateral 6-hydroxydopamine (6OHDA) lesion of the substantia nigra. Briefly: Bilateral 6OHDA lesion of the substantia nigra, behavioral assessment. The format is in vivo, Male rats. The following applies: 6OHDA rats, once daily 7 days sc; 10 mg/kg (estradiol 100 μg/kg). The protocol:
(§1) Male rats received baseline assessment of weight, motor function (spontaneous locomotor behavior, rotorod performance) and sensorimotor gating (prepulse inhibition). Subjects were assigned to treatment conditions to equalize performance on all these measures. Subjects were then treated once daily for 7 days with either sesame oil vehicle, estradiol (100 μg/kg sc), Comparative substance 131 (10 mg/kg sc), Compound 8 (10 mg/kg sc), Comparative substance 623 (10 mg/kg sc) or Comparative substance 957 (10 mg/kg sc). On the second day of treatment, subjects received bilateral sham or 6OHDA lesions (8 μg in 4 μl) of the substantia nigra (A/P−5.0 mm, M/L±1.6 mm, D/V−8.2 mm) following the atlas of Paxinos and Watson (Paxinos, G., Watson, C., The Rat Brain in Stereotaxic Coordinates, Fourth Edition, New York: Academic Press, Spiral Bound, 1998). Behavioral assessments of motor function (spontaneous locomotion, rotorod and traversing a challenging beam), cognition (novel object recognition) and sensorimotor gating (prepulse inhibition) began after the final day of treatment. Following behavioral assessment, SN and striatal tissue were collected in order to determine the intactness of the nigrostriatal dopamine system.

The target of series [2] is T1, ERα (Homo sapiens, UniProt P03372).
T1 sequence (P03372 1-595): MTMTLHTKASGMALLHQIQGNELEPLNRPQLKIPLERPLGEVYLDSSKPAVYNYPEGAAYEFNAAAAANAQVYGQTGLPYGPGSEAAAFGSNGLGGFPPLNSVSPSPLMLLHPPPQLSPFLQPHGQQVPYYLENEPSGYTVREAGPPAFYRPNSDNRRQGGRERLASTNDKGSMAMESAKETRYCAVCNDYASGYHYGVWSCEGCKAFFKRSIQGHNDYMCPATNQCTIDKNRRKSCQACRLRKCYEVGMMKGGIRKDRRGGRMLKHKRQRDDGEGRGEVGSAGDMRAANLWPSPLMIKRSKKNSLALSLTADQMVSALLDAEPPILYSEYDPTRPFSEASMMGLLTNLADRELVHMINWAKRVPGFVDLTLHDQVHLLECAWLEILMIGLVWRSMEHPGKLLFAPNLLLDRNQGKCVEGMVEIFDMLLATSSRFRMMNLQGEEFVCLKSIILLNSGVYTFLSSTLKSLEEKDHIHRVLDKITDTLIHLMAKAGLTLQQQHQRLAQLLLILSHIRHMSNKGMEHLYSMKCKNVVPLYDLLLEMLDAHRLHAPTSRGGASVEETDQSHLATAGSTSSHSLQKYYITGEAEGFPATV
In words: Competitive 3H-estradiol binding assay, ERα. The note with it: 1 nM 3H-estradiol, HEK293T cytosolic extract; read-out: Binding ERα pKi (converted). The protocol:
(§2) HEK293T cells were transiently transfected for 48 hours with expression vectors encoding ERα or ERβ, before being serum starved for 4-6 hours. Cells were then harvested by scraping in ice-cold PBS and subsequently lysed using a cold buffer containing 10 mM Tris pH 7.4, 1 mM EDTA, 1 mM DTT before being subjected to polytron twice for 10 seconds. Cytosolic extracts were isolated by centrifugation at 15000 g for 30 minutes at 4° C. Competitive binding of the test compounds or the estradiol control was performed on 20 μL extract by overnight incubation at 4° C. in a total volume of 100 μL containing 1 nM ^3H-estradiol (Perkin Elmer, Boston, Mass.). The bound fraction was separated from the unbound one by the addition of 100 μL of Dextran coated charcoal, incubated for 10 minutes and subsequent centrifugation at 1000 rpm for 10 minutes. Samples (100 μL per sample) were then analyzed by liquid scintillation. Data was then analyzed using the curve fitting software GraphPad Prism.

The target of series [3] is T2, ERβ (Homo sapiens, UniProt Q92731). In words: R-SAT functional assay, ERβ. The format is cell-based. Further details: expressed in transfected cells; host or cells: transient transfection. The following applies: NIH3T3; NIH-3T3 cells; read-out: R-SAT Erβ % Eff. An excerpt: (§3) R-SAT® (Receptor Selection and Amplification Technology) is a cell-based functional assay that allows one to monitor receptor-dependent proliferative responses and has been described elsewhere. […] This process is achieved by partial cellular transformation via loss of contact inhibition and growth factor dependency. Monitoring is achieved by transfecting the cells with a β-galactosidase reporter gene vector whose expression is under a constitutively active promoter. Briefly, NIH-3T3 fibroblasts were plated overnight in 96-wells plates in DMEM 10% calf serum (Hyclone) and grown to 60-70% confluency prior to transfection. Transient transfections were performed using Polyfect (Qiagen) according to manufacturer's instructions. Typically a transfection mix would consist of the receptor and the β-galactosidase expression vectors. Sixteen hours post-transfection, cells were incubated with different doses of ligand in DMEM containing 30% Ultraculture (Hyclone) and 0.4% calf serum (Hyclone) to generate a dose response curve. […] Plates were read using a microplate reader at 420 nm. Data from R-SAT® assays were fit to the equation: r=A+B(x/(x+c)), where A=minimum response, B=maximum response minus minimum response, c=EC50, r=response, and x=concentration of ligand. Curves were generated using the curve fitting softwares Excel Fit and GraphPad Prism (San Diego, Calif.). Luciferase Reporter Gene Assay

The nature of series [4]: Microsomal bioavailability (Table 2). The series is classed as in vitro ADME. The note with it: read-out: Microsomal bioavailability F (%).
Series [5] addresses T1, ERα. Briefly: Luciferase reporter gene assay (3*ERE) in HEK293 cells, ERα. The following applies: 48 hours. The format is cell-based. The arrangement: expressed in transfected cells; host or cells: transient transfection. As to the method: (§4) HEK293 cells were grown to 70% confluency in DMEM containing 10% calf serum (Hyclone) prior to transfection. On the day of transfection (day 1), expression vectors for ERα or ERβ were cotransfected along a construct containing a synthetic 3*ERE upstream of the luciferase gene (Panomics), using Polyfect (Qiagen) per manufacturer's recommendations (ERE being estrogen response element). Sixteen hours post-transfection, cells were incubated in serum free DMEM. […] Cells extracts were then obtained by lyzing and the Luciferase activity measured, all of these steps performed using a commercially available kit (Promega).
On the technique in general: A reporter such as luciferase makes a cellular process visible.

Series [6] relates to nigrostriatal dopamine neurons. Briefly: Tyrosine hydroxylase immunofluorescence in SN and STR after 6OHDA lesion. The note with it: 6OHDA rats, once daily 7 days sc; 10 mg/kg (estradiol 100 μg/kg). The series is classed as in vivo, Male rats. As to the method:
as §1
Comparative compound 131 and Compound 8 were compared with estradiol for their ability to protect nigrostriatal dopamine neurons as measured by tyrosine hydroxylase (TH) immunohistochemistry in the SN and striatum (STR).

Series [7] has as its target T2, ERβ. In words: Luciferase reporter gene assay (3*ERE) in HEK293 cells, ERβ. The series is classed as cell-based. Further details: expressed in transfected cells; host or cells: HEK293 cells, transient transfection. As to the method: as §4
Series [8] concerns the target T2, ERβ. Briefly: Competitive 3H-estradiol binding assay, ERβ. Further details: expressed in transfected cells; host or cells: HEK293 cells, transient transfection. As to the method: as §2, with “Cells” for “HEK293T cells were transiently transfected for 48 hours with expression vectors encoding ERα or ERβ, before being serum starved for 4-6 hours. Cells”
For series [9], the target named is T2, ERβ. Briefly: R-SAT functional assay, ERβ. The format is cell-based. Further details: expressed in transfected cells; host or cells: transient transfection.
The target of series [10] is T1, ERα. In words: R-SAT functional assay, ERα. The format is cell-based. The arrangement: expressed in transfected cells; host or cells: NIH-3T3 fibroblasts, transient transfection. The note with it: NIH-3T3 cells.
Source text: as §3

T2 sequence (Q92731 whole entry, species assumed): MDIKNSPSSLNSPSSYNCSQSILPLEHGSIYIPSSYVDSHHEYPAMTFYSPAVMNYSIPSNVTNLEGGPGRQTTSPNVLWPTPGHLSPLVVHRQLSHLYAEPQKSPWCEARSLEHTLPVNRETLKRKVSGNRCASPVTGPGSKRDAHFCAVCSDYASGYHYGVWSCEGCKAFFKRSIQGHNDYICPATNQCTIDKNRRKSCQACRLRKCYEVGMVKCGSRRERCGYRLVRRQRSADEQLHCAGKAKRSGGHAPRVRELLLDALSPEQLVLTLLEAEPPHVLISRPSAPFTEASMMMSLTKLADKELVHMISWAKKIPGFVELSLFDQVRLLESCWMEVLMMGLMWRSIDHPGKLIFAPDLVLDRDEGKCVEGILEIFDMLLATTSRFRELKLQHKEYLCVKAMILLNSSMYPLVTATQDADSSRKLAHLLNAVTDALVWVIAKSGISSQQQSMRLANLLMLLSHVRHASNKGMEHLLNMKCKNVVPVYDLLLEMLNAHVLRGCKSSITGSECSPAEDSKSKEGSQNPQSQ

Take `Oc1ccc(C2(c3ccccc3)CCCCC2)cc1` [Compound 131]: in [1], the “motor performance (spontaneous locomotor activity, rotorod, challenging beam)” value was “prevented the impairment”; the “novel object recognition (cognition)” value is reported as “showed improved memory”; the “prepulse inhibition (sensorimotor gating)” value is on record as “prevented the 6OHDA-induced deficit in PPI”. In addition, the Ki on ERα [2] is 1000 nM. On ERβ [3], the Emax was determined as 71%. Moreover, in series [4], the Microsomal bioavailability (predicted from microsomes) was 0%. Also, on ERα [5], the “Luciferase Erα % Eff” value was 29%. The EC50 at ERα [5] (na = not active, read-out: Luciferase Erα pEC50 (converted)) was 15800 nM. Moreover, in series [6], the “percent immunopositive and mean pixel intensity of TH immunofluorescence in the STR” value is “increase in percentage of the image that was immunopositive and increased mean pixel intensity”; the “percent immunopositive, mean cell size and mean pixel intensity of TH immunofluorescence in the SN” value is “improved percent immunopositive, mean cell size and mean pixel intensity”; the “tyrosine hydroxylase positive cell number in the SN” value is recorded as “prevented the reduction in cell number”. For the same molecule, at ERβ [7], the EC50 is 20 nM. The Emax on ERβ [7] (HEK293 cells, 48 hours, read-out: Luciferase Erβ % Eff) came to 80%. For the same molecule, the Ki on ERβ [8] is 50.1 nM. At ERβ [9], this molecule gave an EC50 of 31.6 nM. In addition, the “R-SAT Erα % Eff” value at ERα [10] came to 42%.

(Values after patent US9061981B2, “Diphenyl substituted cyclohexane derivatives, useful as modulators of the estrogen receptors beta” (Acadia Pharmaceuticals Inc., priority 2011, dated 2015).)
